pIC50: −log10 of the molar value.
Tested on: MM1.S
Assay: Antiproliferative activity against human MM1.S cells assessed as inhibition of cell growth incubated for 4 hrs by CCK-8 assay
Type: functional, cell-based

Structure (SMILES)	pIC50
Cc1cn(/C=C(/C(N)=O)c2cncnc2)nc1-c1cc(C(F)(F)F)cc(C(F)(F)F)c1	5.68
CCOC(=O)/C(=C/n1cnc(-c2cc(C(F)(F)F)cc(C(F)(F)F)c2)n1)c1ccc(NS(C)(=O)=O)cc1	6.84
Cc1ccc(S(=O)(=O)Nc2ccc(/C(=C\n3cnc(-c4cc(C(F)(F)F)cc(C(F)(F)F)c4)n3)C(N)=O)cc2)cc1	5.56
